From US5438057A, “Pharmaceutical compositions” (priority 1991, dated 1995)

Columns and labels:
[1] = system: acute daunorubicin toxicity; conditions: Herman et al, Res. Commun. Chem. Pathol. Pharmacol., 1985, 48, 39; cited from earlier work
[2] = Body weight (general acute toxicity) after i.p. pretreatment and doxorubicin; format: in vivo, Sprague Dawley rats
Method: (§1) Mature male Sprague Dawley rats, 13-14 weeks old, weighing 400-500 gm were used. The animals were caged in groups of three and were kept in a constant environment. They were fed 41-B cubed diet and water ad libitum. The animal house was maintained in an alternating 12-hour wake-sleep cycle.
(§2) The cardioprotective activity of (±) trans-1,2-bis(3,5-dioxopiperazin-1-yl)cyclobutane (hereinafter referred to as the compound) was studied in the rats. […] The suspension was prepared shortly before use and was administered at a constant injection volume of 1 ml per 100 gm body weight. Doxorubicin hydrochloride (hereafter referred to as doxorubicin) (Farmitalia, Milan, Italy) was dissolved in sterile water (2 mg/ml) before injection.
(§3) A group of 6 animals received a combined treatment of the compound and doxorubicin. The compound was administered to animals as a single intraperitoneal (i.p.) injection into the lower right quadrant of the abdomen to avoid damage to vital organs. An hour after the administration of the compound, the animals received a single intravenous (i.v.) injection of doxorubicin (4 mg/kg), via the femoral vein. A group of 10 animals received an i.p. injection of saline (1 ml/100 gm) followed by an i.v. injection of saline (0.2 ml/100 gm) one hour later. These rats acted as control animals. Nine animals received an i.p. injection of saline one hour before an i.v. administration of doxorubicin (4 mg/kg). To minimise the effects of circadian timing, doxorubicin administration was carried out between 13.30 hours and 15.30 hours. During intravenous drug administration and for subsequent cardiac output measurements, animals were anaesthetised with choral hydrate (300 mg/kg).
The animals were weighed daily for up to three weeks after receiving treatment. The maximum reduction in body weight over this period was used as an index for the assessment of general acute toxicity. Animals were also weighed at 4 and 8 weeks to assess the general toxicity of the drug.
(§4) In this study, statistical differences between group means were analysed using Student's t-test.

[3] = system: doxorubicin-induced cardiotoxicity; experiment: Protective activity against doxorubicin-induced cardiotoxicity: cardiac output, heart rate, survival, congestive heart failure at 8 weeks; format: in vivo, Sprague Dawley rats; conditions: for Survival: survivors/animals; for Incidence of CHF (congestive heart failure): over 8 weeks
Method: as §1, §2, §3
The protective activity of the compound against doxorubicin-induced cardiotoxicity in the rats was assessed at 8 weeks by measuring the cardiac output in animals receiving the treatment using an external counting technique wherein a radioactive tracer, technetium (^99m TcO4), was injected as a bolus into the femoral vein of an anaesthetised animal. The activity time curve over the heart was recorded at 0.1 second intervals for 40 seconds, using an NaI detector connected to a multi-channel analyzer (ND-62, Nuclear Data). ECG and heart rate were determined concomitantly with the cardiac output measurement, using a human ECG monitor (Hewlett Packard 7830A) coupled to a scope memory (model VK-12-2, Seltek Instrument Ltd.) and a chart recorder.
Gross post mortem examinations were carried out on the animals that died during the study as well as those killed at the end of experiment (8 weeks).
as §4

[4] = system: daunorubicin toxicity; doxorubicin toxicity; conditions: Herman et al, Adv. Pharmacol. Chemother., 1982, 19, 249; cited from earlier work
[5] = Solubility in saline / aqueous media; format: physicochemical; conditions: administered as suspension in 0.5% CMC
[6] = saline i.p. + doxorubicin 4 mg/kg i.v. after 1 hour
[7] = saline + doxorubicin 4 mg/kg, 8 weeks
[8] = saline i.p. + doxorubicin 4 mg/kg i.v. after 1 hour, 8 weeks
[9] = compound 100 mg/kg i.p. + doxorubicin 4 mg/kg i.v. after 1 hour, 8 weeks
[10] = compound 150 mg/kg i.p. + doxorubicin 4 mg/kg i.v. after 1 hour, 8 weeks
[11] = compound 200 mg/kg i.p. + doxorubicin 4 mg/kg i.v. after 1 hour, 8 weeks
[12] = compound 100, 150 or 200 mg/kg i.p. + doxorubicin 4 mg/kg

Structure (SMILES): CN1C(=O)CN(CCN2CC(=O)N(C)C(=O)C2)CC1=O [R=R'=H and R"=CH3]
- protective effect against acute daunorubicin toxicity [1]: either no protective activity or only minimal protective activity

Structure (SMILES): CC(CN1CC(=O)N(C)C(=O)C1)N1CC(=O)N(C)C(=O)C1 (stereo not drawn) [R=R"=CH3and R'=H (l)]
- protective effect against acute daunorubicin toxicity [1]: either no protective activity or only minimal protective activity

Structure (SMILES): O=C1CN(CCN2CC(=O)NC(=O)C2)CC(=O)N1 [R=R'=R"=H]
- protective effect against acute daunorubicin toxicity [1]: either no protective activity or only minimal protective activity

Structure (SMILES): O=C1CN(C2CCC2N2CC(=O)NC(=O)C2)CC(=O)N1 (stereo not drawn) [R+R'=--CH2 --CH2 -- and R"=H]
- protective effect against acute daunorubicin toxicity [1]: either no protective activity or only minimal protective activity

Structure (SMILES): C[C@H]([C@H](C)N1CC(=O)NC(=O)C1)N1CC(=O)NC(=O)C1 [R=R'=CH3 and R"=H (meso)]
- protective effect against acute daunorubicin toxicity [1]: either no protective activity or only minimal protective activity

Structure (SMILES): COc1cccc2c1C(=O)c1c(O)c3c(c(O)c1C2=O)C[C@@](O)(C(=O)CO)C[C@@H]3O[C@H]1C[C@H](N)[C@H](O)[C@H](C)O1 [doxorubicin]
- reduction in body weight in the first three weeks after treatment ([2]; doxorubicin 4 mg/kg i.v., pretreated with saline i.p.): > 10%
- W2: mean body weight at 4 weeks after treatment [2, 6]: 381 ± 8
- W3: mean body weight at 8 weeks after treatment [2, 6]: 324 ± 27
- ΔW(%): maximum reduction in body weight in the first 3 weeks after treatment [2, 6]: 11.6 ± 0.7%
- W1: mean body weight of animals at the time of injection ([2]; saline i.p. + doxorubicin 4 mg/kg i.v. after 1 hour, baseline): 447 ± 11
- reduction in cardiac output [3, 7]: 60%
- reduction in heart rate [3, 7]: 35%
- death during study ([3]; saline + doxorubicin 4 mg/kg, 9 animals): one animal died just before 8 weeks
- RCO: mean relative cardiac output (treated / age-matched control) [3, 8]: 0.41 ± 0.04
- RHR: mean relative heart rate (treated / age-matched control) [3, 8]: 0.65 ± 0.19
- Survival [3, 8]: 8/9
- Incidence of CHF (congestive heart failure) [3, 6]: 0/8

Structure (SMILES): CC[C@H]([C@H](C)N1CC(=O)NC(=O)C1)N1CC(=O)NC(=O)C1 (relative stereo) [R: CH3, R'=C2 H5 and R"=H (dl-erythro)]
- protective effect against acute daunorubicin toxicity [1]: either no protective activity or only minimal protective activity

Structure (SMILES): O=C1CN(CCCN2CC(=O)NC(=O)C2)CC(=O)N1
- protective effect against acute daunorubicin toxicity [1]: either no protective activity or only minimal protective activity

Structure (SMILES): CCC(CN1CC(=O)NC(=O)C1)N1CC(=O)NC(=O)C1 (racemic) [R=C2 H5 and R'=R"=H (dl)]
- protective effect against acute daunorubicin toxicity [1]: either no protective activity or only minimal protective activity

Structure (SMILES): CC(CN1CC(=O)NC(=O)C1)N1CC(=O)NC(=O)C1 (racemic) [ICRF 159]
- effectiveness in reducing high dose daunorubicin toxicity relative to doxorubicin toxicity [4]: consistently more effective in reducing high dose daunorubicin toxicity than doxorubicin toxicity

Structure (SMILES): O=C1CN([C@@H]2CC[C@H]2N2CC(=O)NC(=O)C2)CC(=O)N1 (racemic) [Compound, (±) trans-1,2-bis(3,5-dioxopiperazin-1-yl)cyclobutane]
- solubility in saline [5]: inadequately soluble in saline
- change in heart rate ([3]; animals pretreated with the compound + doxorubicin 4 mg/kg): no change in heart rate
- RCO: mean relative cardiac output (treated / age-matched control) [3, 9]: 0.80 ± 0.05
- RHR: mean relative heart rate (treated / age-matched control) [3, 9]: 1.04 ± 0.03
- Survival [3, 9]: 6/6
- Incidence of CHF (congestive heart failure) ([3]; compound 100 mg/kg i.p. + doxorubicin 4 mg/kg i.v. after 1 hour): 0/6
- RCO: mean relative cardiac output (treated / age-matched control) [3, 10]: 0.86 ± 0.06
- RHR: mean relative heart rate (treated / age-matched control) [3, 10]: 1.00 ± 0.04
- Survival [3, 10]: 6/6
- Incidence of CHF (congestive heart failure) ([3]; compound 150 mg/kg i.p. + doxorubicin 4 mg/kg i.v. after 1 hour): 0/6
- RCO: mean relative cardiac output (treated / age-matched control) [3, 11]: 0.84 ± 0.05
- RHR: mean relative heart rate (treated / age-matched control) [3, 11]: 1.05 ± 0.03
- Survival [3, 11]: 6/6
- Incidence of CHF (congestive heart failure) ([3]; compound 200 mg/kg i.p. + doxorubicin 4 mg/kg i.v. after 1 hour): 0/6
- activity against doxorubicin-induced cardiotoxicity [3, 12]: significant activity against doxorubicin-induced cardiotoxicity
- survival (in words) [3, 12]: survived the course of study of 8 weeks
- signs of congestive failure ([3]; compound 100, 150 or 200 mg/kg i.p. + doxorubicin 4 mg/kg, 8 weeks): without showing any signs of congestive failure
- impairment in cardiac output compared to saline and doxorubicin ([3]; compound 100, 150 or 200 mg/kg i.p. + doxorubicin 4 mg/kg, p<0.001): significantly less impairment in cardiac output
- dose dependence of the protective activity ([3]; dose range 100-200 mg/kg i.p. + doxorubicin 4 mg/kg): no indication of dose dependent changes in the protective activity

Structure (SMILES): CC(CN1CC(=O)NC(=O)C1)N1CC(=O)NC(=O)C1 (racemic) [the compound having R=CH3 and R'=R"=H (as the dl, d or l isomer)]
- protective effect against acute daunorubicin toxicity [1]: give protection against the lethal effects of daunorubicin

Structure (SMILES): O=C1CN(CCN2CC(=O)N(CN3CCOCC3)C(=O)C2)CC(=O)N1CN1CCOCC1 [bimolane]
- protective effect against acute daunorubicin toxicity [1]: give protection against the lethal effects of daunorubicin
